# Results as given in patent publication US20080039438A1, “1B-Methylcarbapenem Derivative and Process for the Preparation Thereof” (Korea Institute of Science and Technology, priority 2004, published 2008).
# Like-named read-outs stand apart in the source and are kept apart here.
# Experiments:
# [1] = system: Streptococcus pyogenes 308A; assay: MIC against standard strains (agar dilution); type: cell-based; details: standard strain Streptococcus pyogenes 308A, 37° C., 18 to 20 hours, read-out: Minimum Inhibitory Concentration (MIC)
# [2] = system: Staphylococcus aureus 285; assay: MIC against standard strains (agar dilution); type: cell-based; details: standard strain Staphylococcus aureus 285, 37° C., 18 to 20 hours, read-out: Minimum Inhibitory Concentration (MIC)
# Escherichia coli 078 = assay: MIC against standard strains (agar dilution); type: cell-based; details: standard strain Escherichia coli 078, 37° C., 18 to 20 hours, read-out: Minimum Inhibitory Concentration (MIC)
# Escherichia coli TEM = assay: MIC against standard strains (agar dilution); type: cell-based; details: standard strain Escherichia coli TEM, 37° C., 18 to 20 hours, read-out: Minimum Inhibitory Concentration (MIC)
# [3] = system: Pseudomonas aeruginosa 1771M; assay: MIC against standard strains (agar dilution); type: cell-based; details: read-out: Minimum Inhibitory Concentration (MIC)
# Klebsiella cxytoca 1082E = assay: MIC against standard strains (agar dilution); type: cell-based; details: standard strain Klebsiella cxytoca 1082E, 37° C., 18 to 20 hours, read-out: Minimum Inhibitory Concentration (MIC)
# [4] = system: Klebsiella aerogenes 1522E; assay: MIC against standard strains (agar dilution); type: cell-based; details: standard strain Klebsiella aerogenes 1522E, 37° C., 18 to 20 hours, read-out: Minimum Inhibitory Concentration (MIC)
# [5] = system: Enterobacter cloacae 1321E; assay: MIC against standard strains (agar dilution); type: cell-based; details: standard strain Enterobacter cloacae 1321E, 37° C., 18 to 20 hours, read-out: Minimum Inhibitory Concentration (MIC)
# Staphylococcus coagulase = assay: MIC against clinically isolated aerobic Gram-positive strains; type: cell-based; details: for MIC50 / MIC90: Staphylococcus; for MIC Range: clinically isolated Staphylococcus coagulase, 22 strains
# Streptococcus agalactiae = assay: as above; type: cell-based; details: 15 strains
# Enterococcus faecalis = assay: as above; type: cell-based; details: 30 strains
# Haemophilus influenzae = assay: MIC against clinically isolated aerobic Gram-negative strains; type: cell-based; details: 24 strains
# Klebsiella oxytoca = assay: as above; type: cell-based; details: 15 strains
# Serratia marcescens = assay: as above; type: cell-based; details: 14 strains
# Proteus mirabilis = assay: as above; type: cell-based; details: 15 strains
# Proteus vulgaris = assay: as above; type: cell-based; details: 15 strains
# Morganella morganii = assay: as above; type: cell-based; details: 15 strains
# Acinetobacter baumannii = assay: as above; type: cell-based; details: 30 strains
# Pseudomonas aeruginosa = assay: as above; type: cell-based; details: 60 strains
# Bacteroides fragilis = assay: MIC against clinically isolated anaerobic Gram-negative strains; type: cell-based; details: 34 strains
# [6] = system: Bacteroides thetaiotaomicron; assay: as above; type: cell-based
# DHP-I = target: T1, DHP-I (Sus scrofa, UniProt P22412); type: in vitro ADME, porcine; details: pig, 50 μg/ml, pH 7
# T1 construct: DHP-I used in the experiment was isolated from the kidney cortex of a porcine; from tissue; host or cells: porcine kidney cortex
# T1 sequence (P22412 17-384): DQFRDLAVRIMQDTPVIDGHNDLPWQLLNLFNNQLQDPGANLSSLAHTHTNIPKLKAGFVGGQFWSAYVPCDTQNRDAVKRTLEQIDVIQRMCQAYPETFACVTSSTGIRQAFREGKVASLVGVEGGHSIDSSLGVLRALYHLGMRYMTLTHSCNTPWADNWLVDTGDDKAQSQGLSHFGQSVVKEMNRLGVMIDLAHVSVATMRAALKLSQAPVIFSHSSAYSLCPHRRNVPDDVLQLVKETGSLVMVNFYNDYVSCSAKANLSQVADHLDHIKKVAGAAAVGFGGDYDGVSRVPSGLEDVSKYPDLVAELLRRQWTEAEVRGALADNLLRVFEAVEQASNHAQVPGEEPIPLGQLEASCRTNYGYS
# Description: To investigate the stability of sodium 3-carboxylate compound of formula (I) prepared in Example to DHP-I secreted in the kidney, the following experiment was performed.
# DHP-I used in the experiment was isolated from the kidney cortex of a porcine. The enzyme quantity at which the concentration of imipenem was reduced by one half by hydrolysis at 30° C. for 30 minutes was defined as one unit. 50 μg/ml of a test drug and a unit of DHP-I were added to 1 ml of MOPS buffer (pH 7.0), the mixture was maintained at 30° C. and OD values at 299 nm were measured after 0.5, 1, 2, 4 hours.
# [7] = Pharmacokinetics test in rats; type: in vivo, Sprague-Dawley rats
# Description: (§1) The pharmacokinetic behavior of the sodium 3-carboxylate compound of Example was determined as follows. Male Sprague-Dawley rats (weighing 250 g, 14-15 weeks old, 5 rats/group) and Beagle dogs (weighing 10 kg, 3 dogs/group) were maintained by feeding conventional hard food at identical conditions for more than 7 days. The test animals were fasted except water for more than 24 hours before tested. […] 500 μl of each blood sample was centrifuged at 12,000 rpm for 30 seconds, the supernatant was filtered through a 0.22 μm filter, and analyzed by HPLC/UV, and the result was listed in Table 7.
# [8] = Pharmacokinetics test in dogs; type: in vivo, Beagle dogs; details: dog, intravenous, 5 mg/kg
# Description: as §1
# [9] = clinically isolated anaerobic Bacteroides thetaiotaomicron, 15 strains
# [10] = male, Sprague-Dawley, supernatant of centrifuged blood, rat, intravenous, 20 mg/kg
# [11] = Beagle, supernatant of centrifuged blood
structure (smiles),measurement,setting,value
"C[C@@H](O)[C@H]1C(=O)N2C(C(=O)O)=C(S[C@@H]3CN[C@H](/C=C/c4cc(C(=O)O)no4)C3)[C@H](C)[C@H]12 [Example, (1R,5S,6S,8R,3′S,5′S)-2-{5′-[(E)-2-(3-carboxylic acid or sodium carboxylate-5-isoxazolo)ethenyl]pyrrolidin-3′-ylthio}-6-(1-hydroxyethyl)-1-methylcarbapen-2-em-3-carboxylic acid]",MIC,[1],0.049 µg/mL
same,MIC,[2],0.195 µg/mL
same,MIC,Escherichia coli 078,0.025 µg/mL
same,MIC,Escherichia coli TEM,0.025 µg/mL
same,MIC,[3],0.391 µg/mL
same,MIC,Klebsiella cxytoca 1082E,0.049 µg/mL
same,MIC,[4],0.049 µg/mL
same,MIC,[5],0.025 µg/mL
same,MIC50,Staphylococcus coagulase,0.12 µg/mL
same,MIC90,Staphylococcus coagulase,0.25 µg/mL
same,MIC Range,Staphylococcus coagulase,0.06 to 0.5 µg/mL
same,MIC50,Streptococcus agalactiae,0.008 µg/mL
same,MIC90,Streptococcus agalactiae,0.015 µg/mL
same,MIC Range,Streptococcus agalactiae,0.008 to 0.015 µg/mL
same,MIC50,Enterococcus faecalis,8 µg/mL
same,MIC90,Enterococcus faecalis,32 µg/mL
same,MIC Range,Enterococcus faecalis,4 to 32 µg/mL
same,MIC50,Haemophilus influenzae,0.25 µg/mL
same,MIC90,Haemophilus influenzae,4 µg/mL
same,MIC Range,Haemophilus influenzae,0.25 to 8 µg/mL
same,MIC50,Klebsiella oxytoca,0.03 µg/mL
same,MIC90,Klebsiella oxytoca,0.03 µg/mL
same,MIC Range,Klebsiella oxytoca,0.015 to 0.25 µg/mL
same,MIC50,Serratia marcescens,0.03 µg/mL
same,MIC90,Serratia marcescens,16 µg/mL
same,MIC Range,Serratia marcescens,0.03 to 16 µg/mL
same,MIC50,Proteus mirabilis,0.03 µg/mL
same,MIC90,Proteus mirabilis,0.06 µg/mL
same,MIC Range,Proteus mirabilis,0.015 to 0.06 µg/mL
same,MIC50,Proteus vulgaris,0.06 µg/mL
same,MIC90,Proteus vulgaris,0.06 µg/mL
same,MIC Range,Proteus vulgaris,0.03 to 0.06 µg/mL
same,MIC50,Morganella morganii,0.03 µg/mL
same,MIC90,Morganella morganii,0.06 µg/mL
same,MIC Range,Morganella morganii,0.03 to 0.12 µg/mL
same,MIC50,Acinetobacter baumannii,8 µg/mL
same,MIC90,Acinetobacter baumannii,64 µg/mL
same,MIC Range,Acinetobacter baumannii,2 to 128 µg/mL
same,MIC50,Pseudomonas aeruginosa,4 µg/mL
same,MIC90,Pseudomonas aeruginosa,64 µg/mL
same,MIC Range,Pseudomonas aeruginosa,0.06 to 128 µg/mL
same,MIC50,Bacteroides fragilis,0.5 µg/mL
same,MIC90,Bacteroides fragilis,1 µg/mL
same,MIC Range,Bacteroides fragilis,0.25 to 4 µg/mL
same,MIC Range,[6]; [9],0.5 to 8 µg/mL
same,MIC50,"[6]; clinically isolated anaerobic Bacteroides thetaiotaomicron, 15 strains, read-out: MIC50",1 µg/mL
same,MIC90,"[6]; clinically isolated anaerobic Bacteroides thetaiotaomicron, 15 strains, read-out: MIC90",4 µg/mL
same,higher stability to DHP-I than imipenem,DHP-I,about 25 fold
same,higher bioavailability than meropenem,"[7]; in rats, versus meropenem",about 4 fold
same,longer half-life than meropenem,"[7]; in rats, versus meropenem",about 3 fold
same,clearance,[7]; [10],13.3 ± 1.5 mL/min/kg
same,half-life,[7]; [10],12.4 ± 4.1 min
same,AUC,"[7]; male, Sprague-Dawley, supernatant of centrifuged blood, rat, intravenous, 20 mg/kg, read-out: AUC (converted)",25300 ng·h/mL
same,AUC,[8]; [11],14400 ng·h/mL
same,half-life,[8]; [11],41 min
"C[C@@H](O)[C@H]1C(=O)N2C(C(=O)O)=C(S[C@@H]3CN[C@H](C(=O)N(C)C)C3)[C@H](C)[C@H]12 [MPM, meropenem]",MIC,[1],0.007 µg/mL
same,MIC,[2],0.195 µg/mL
same,MIC,Escherichia coli 078,0.025 µg/mL
same,MIC,Escherichia coli TEM,0.025 µg/mL
same,MIC,[3],0.098 µg/mL
same,MIC,Klebsiella cxytoca 1082E,0.049 µg/mL
same,MIC,[4],0.049 µg/mL
same,MIC,[5],0.025 µg/mL
same,MIC50,Staphylococcus coagulase,0.06 µg/mL
same,MIC90,Staphylococcus coagulase,0.12 µg/mL
same,MIC Range,Staphylococcus coagulase,0.03 to 0.5 µg/mL
same,MIC50,Streptococcus agalactiae,0.03 µg/mL
same,MIC90,Streptococcus agalactiae,0.03 µg/mL
same,MIC Range,Streptococcus agalactiae,0.03 µg/mL
same,MIC50,Enterococcus faecalis,4 µg/mL
same,MIC90,Enterococcus faecalis,16 µg/mL
same,MIC Range,Enterococcus faecalis,2 to 16 µg/mL
same,MIC50,Haemophilus influenzae,0.25 µg/mL
same,MIC90,Haemophilus influenzae,1 µg/mL
same,MIC Range,Haemophilus influenzae,0.06 to 1 µg/mL
same,MIC50,Klebsiella oxytoca,0.03 µg/mL
same,MIC90,Klebsiella oxytoca,0.03 µg/mL
same,MIC Range,Klebsiella oxytoca,0.015 to 0.06 µg/mL
same,MIC50,Serratia marcescens,0.03 µg/mL
same,MIC90,Serratia marcescens,8 µg/mL
same,MIC Range,Serratia marcescens,0.03 to 8 µg/mL
same,MIC50,Proteus mirabilis,0.06 µg/mL
same,MIC90,Proteus mirabilis,0.06 µg/mL
same,MIC Range,Proteus mirabilis,0.015 to 0.06 µg/mL
same,MIC50,Proteus vulgaris,0.06 µg/mL
same,MIC90,Proteus vulgaris,0.06 µg/mL
same,MIC Range,Proteus vulgaris,0.03 to 0.06 µg/mL
same,MIC50,Morganella morganii,0.06 µg/mL
same,MIC90,Morganella morganii,0.12 µg/mL
same,MIC Range,Morganella morganii,0.03 to 0.12 µg/mL
same,MIC50,Acinetobacter baumannii,1 µg/mL
same,MIC90,Acinetobacter baumannii,8 µg/mL
same,MIC Range,Acinetobacter baumannii,0.25 to 64 µg/mL
same,MIC50,Pseudomonas aeruginosa,2 µg/mL
same,MIC90,Pseudomonas aeruginosa,16 µg/mL
same,MIC50,Bacteroides fragilis,0.12 µg/mL
same,MIC90,Bacteroides fragilis,0.25 µg/mL
same,MIC Range,Bacteroides fragilis,0.12 to 4 µg/mL
same,MIC50,[6]; Bacteroides thetaiotaomicron,0.25 µg/mL
same,MIC90,[6]; Bacteroides thetaiotaomicron,0.5 µg/mL
same,MIC Range,[6]; [9],0.25 to 2 µg/mL
same,AUC,"[7]; rat, intravenous, 20 mg/kg",6380 ± 600 ng·h/mL
same,CL,"[7]; rat, intravenous, 20 mg/kg",54.2 ± 5.3 mL/min/kg
same,T1/2,"[7]; rat, intravenous, 20 mg/kg",4.0 ± 0.2 min
same,AUC,[8]; [11],11600 ng·h/mL
same,T1/2,[8],33 min
"C[C@@H](O)[C@H]1C(=O)N2C(C(=O)O)=C(SCCN=CN)C[C@H]12 [IPM, Imipenem]",MIC,[1],0.004 µg/mL
same,MIC,[2],0.013 µg/mL
same,MIC,Escherichia coli 078,0.098 µg/mL
same,MIC,Escherichia coli TEM,0.098 µg/mL
same,MIC,[3],0.195 µg/mL
same,MIC,Klebsiella cxytoca 1082E,0.195 µg/mL
same,MIC,[4],0.195 µg/mL
same,MIC,[5],0.098 µg/mL
same,MIC50,Staphylococcus coagulase,0.015 µg/mL
same,MIC90,Staphylococcus coagulase,0.015 µg/mL
same,MIC Range,Staphylococcus coagulase,0.008 to 0.03 µg/mL
same,MIC50,Streptococcus agalactiae,0.008 µg/mL
same,MIC90,Streptococcus agalactiae,0.015 µg/mL
same,MIC Range,Streptococcus agalactiae,0.008 to 0.015 µg/mL
same,MIC50,Enterococcus faecalis,1 µg/mL
same,MIC90,Enterococcus faecalis,4 µg/mL
same,MIC Range,Enterococcus faecalis,0.5 to 4 µg/mL
same,MIC50,Haemophilus influenzae,1 µg/mL
same,MIC90,Haemophilus influenzae,4 µg/mL
same,MIC Range,Haemophilus influenzae,0.25 to 8 µg/mL
same,MIC50,Klebsiella oxytoca,0.12 µg/mL
same,MIC90,Klebsiella oxytoca,0.5 µg/mL
same,MIC Range,Klebsiella oxytoca,0.06 to 0.5 µg/mL
same,MIC50,Serratia marcescens,0.25 µg/mL
same,MIC90,Serratia marcescens,2 µg/mL
same,MIC Range,Serratia marcescens,0.12 to 4 µg/mL
same,MIC50,Proteus mirabilis,2 µg/mL
same,MIC90,Proteus mirabilis,2 µg/mL
same,MIC Range,Proteus mirabilis,0.25 to 4 µg/mL
same,MIC50,Proteus vulgaris,1 µg/mL
same,MIC90,Proteus vulgaris,2 µg/mL
same,MIC Range,Proteus vulgaris,0.25 to 2 µg/mL
same,MIC50,Morganella morganii,1 µg/mL
same,MIC90,Morganella morganii,2 µg/mL
same,MIC Range,Morganella morganii,0.5 to 2 µg/mL
same,MIC50,Acinetobacter baumannii,1 µg/mL
same,MIC90,Acinetobacter baumannii,8 µg/mL
same,MIC Range,Acinetobacter baumannii,0.25 to 32 µg/mL
same,MIC50,Pseudomonas aeruginosa,2 µg/mL
same,MIC90,Pseudomonas aeruginosa,16 µg/mL
same,MIC Range,Pseudomonas aeruginosa,0.5 to 128 µg/mL
same,MIC50,Bacteroides fragilis,0.25 µg/mL
same,MIC90,Bacteroides fragilis,0.5 µg/mL
same,MIC Range,Bacteroides fragilis,0.06 to 2 µg/mL
same,MIC50,[6]; Bacteroides thetaiotaomicron,0.5 µg/mL
same,MIC90,[6]; Bacteroides thetaiotaomicron,4 µg/mL
same,MIC Range,[6]; [9],0.12 to 16 µg/mL
